Key:
[1] = GI S9 stability - no PMSF; format: in vitro ADME; conditions: pH 7.4; human intestinal S9, PMSF-free; read-out: GIS9-HUMAN-NoPMSF T1/2
Method in brief: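 Stability was assessed by Q-Exactive LC-MS peak area ratios against internal standard, tracking loss of parent and appearance of nucleoside metabolite Reference Compound A. Incubations used 2 μM compound in 1 mg/mL intestinal S9 without PMSF (PBS, pH 7.4), with six samples taken over 120 min.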

[2] = CC50 MT4 cytotoxicity (Cell-Titer Glo); format: cell-based; conditions: human
Method in brief: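 CC50 values are the concentrations cutting viability by 50%, fitted by non-linear regression against untreated (100%) and 2 μM puromycin (0%) controls. Cell-Titer Glo luminescence measured after 4-5 days at 37° C exposure of uninfected MT-4 and HEp-2 cells to 3-fold dilutions spanning 15 nM to 100,000 nM.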

[3] = tested on: SARS Coronavirus 2 recombinant with NanoLuc (SARS-CoV2-NLuc) in A549-hACE2 cells; assay: organism not typed; format: cell-based; conditions: 48 h; read-out: SARS-CoV2 EC50
[4] = tested on: Respiratory syncytial virus recombinant with luciferase (RSV-Luc5) in Normal Human Bronchial Epithelial (NHBE) cells; assay: microbe, parasite or virus in culture; format: cell-based; conditions: 72 h, read-out: RSV NHBE EC50
[5] = Plasma stability; format: in vitro ADME; set-up: unit not given here; conditions: 37° C., 2 μM substrate
Method in brief: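 LC-MS (Q-Exactive, 5 ppm tolerance, 0.1% formic acid water/acetonitrile gradient) quantified compound in quenched aliquots. Aliquots were taken at 0.05, 0.5, 1, 2, 3 and 4 hr and quenched with internal-standard solution, and supernatants were diluted with water after centrifugation.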

[6] = Stability in pH7 buffered solution; format: physicochemical; conditions: pH7 phosphate buffer, 40° C., Table N2
Method in brief: (§1)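 UPLC % area-normalized compound peak tracked over 24 hrs at 40° C. (0, 3, 6, 9, 12 and 24 hrs). Samples at 50 μg/mL, prepared from 1 mg/mL acetonitrile stock, in pH2 or pH7 50 mM phosphate/150 mM NaCl buffer.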

[7] = Thermodynamic solubility in pH7 buffered solution; conditions: 50 mM phosphate buffer pH7, 150 mM NaCl, ambient temperature, 24 hours
Method in brief: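 Solid shaken 24 h at ambient temperature in 50 mM phosphate buffer pH7 with 150 mM NaCl. Supernatant diluted in 30:70 acetonitrile:water and quantified by UPLC-UV.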

[8] = Stability in pH2 buffered solution; format: physicochemical; conditions: pH2 phosphate buffer, 40° C.; for pH 2 Stability 24 h % AN: Table N2
Method in brief: as §1

CC12CCC(C1)C(C)(C)C2OC(=O)OC[C@H]1O[C@@](C#N)(c2ccc3c(N)ncnn23)[C@H](O)[C@@H]1O (mixture of isomers) [Compound 48, ((2R,3S,4R,5R)-5-(4-aminopyrrolo[2,1-f][1,2,4]triazin-7-yl)-5-cyano-3,4-dihydroxytetrahydrofuran-2-yl)methyl (1,3,3-trimethylbicyclo[2.2.1]heptan-2-yl) carbonate]
half-life at 2 µM [1]: 10.1 min | CC50 [2]: 25.5 µM | EC50 [3]: 14.2 µM | EC50 [4]: 0.167 µM | STA Human Plasma 37 [5]: 1584 | pH 7 Stability 24 h % AN [6]: 99 % AN | Sol pH 7 [7]: 0.19 | pH 2 Stability 24 h % AN [8]: 100 % AN

CC(C)OC(=O)OC[C@H]1O[C@@](C#N)(c2ccc3c(N)ncnn23)[C@H](O)[C@@H]1O [Compound 4, [(2R,3S,4R,5R)-5-(4-aminopyrrolo[2,1-f][1,2,4]triazin-7-yl)-5-cyano-3,4-dihydroay-tetrahydrofuran-2-yl]methyl isopropyl carbonate]
half-life at 2 µM [1]: 0.903 min | CC50 [2]: > 50 µM | EC50 [3]: 2.67 µM | EC50 [4]: 0.774 µM | STA Human Plasma 37 [5]: 107.92 | pH 7 Stability 24 h % AN [6]: 97 % AN | Sol pH 7 [7]: 1.85 | Stability at pH2, 0 hr [8]: 98.5 % AN | Stability at pH2, 3 hr [8]: 98.3 % AN | Stability at pH2, 6 hr [8]: 98.5 % AN | Stability at pH2, 9 hr [8]: 98.4 % AN | Stability at pH2, 12 hr [8]: 98.5 % AN | pH 2 Stability 24 h % AN [8]: 98 % AN | Stability at pH2, 24 hr [8]: 98.3 % AN

CCOC(=O)OC[C@H]1O[C@@](C#N)(c2ccc3c(N)ncnn23)[C@H](O)[C@@H]1O [Compound 6, ((2R,3S,4R,5R)-5-(4-aminopyrrolo[2,1-f][1,2,4]triazin-7-yl)-5-cyano-3,4-dihydroxytetrahydrofuran-2-yl)methyl ethyl carbonate]
half-life at 2 µM [1]: 4.08 min | CC50 [2]: > 50 µM | EC50 [3]: 4.42 µM | EC50 [4]: 1.01 µM | STA Human Plasma 37 [5]: 55.852 | pH 7 Stability 24 h % AN [6]: 100 % AN | Sol pH 7 [7]: 3.02 | pH 2 Stability 24 h % AN [8]: 100 % AN

CC(C)(C)OC(=O)OC[C@H]1O[C@@](C#N)(c2ccc3c(N)ncnn23)[C@H](O)[C@@H]1O [Compound 46, ((2R,3S,4R,5R)-5-(4-aminopyrrolo[2,1-f][1,2,4]triazin-7-yl)-5-cyano-3,4-dihydroxytetrahydrofuran-2-yl)methyl tert-butyl carbonate]
half-life at 2 µM [1]: 145 min | CC50 [2]: > 50 µM | EC50 [3]: 4.3 µM | EC50 [4]: 1.18 µM | STA Human Plasma 37 [5]: 553.13 | pH 7 Stability 24 h % AN [6]: 8 % AN | Sol pH 7 [7]: 0.45 | pH 2 Stability 24 h % AN [8]: 4 % AN

CC1(OC(=O)OC[C@H]2O[C@@](C#N)(c3ccc4c(N)ncnn34)[C@H](O)[C@@H]2O)CCCCC1 [Compound 47, ((2R,3S,4R,5R)-5-(4-aminopyrrolo[2,1-f][1,2,4]triazin-7-yl)-5-cyano-3,4-dihydroxytetrahydrofuran-2-yl)methyl (1-methylcyclohexyl) carbonate]
half-life at 2 µM [1]: 151 min | CC50 [2]: > 50 µM | EC50 [3]: 3.36 µM | EC50 [4]: 1.48 µM | STA Human Plasma 37 [5]: 1584 | pH 7 Stability 24 h % AN [6]: 3 % AN | Sol pH 7 [7]: 0.1 | pH 2 Stability 24 h % AN [8]: 1 % AN

CC(C)(OC(=O)OC[C@H]1O[C@@](C#N)(c2ccc3c(N)ncnn23)[C@H](O)[C@@H]1O)c1ccncc1 [Compound 49, ((2R,3S,4R,5R)-5-(4-aminopyrrolo[2,1-f][1,2,4]triazin-7-yl)-5-cyano-3,4-dihydroxytetrahydrofuran-2-yl)methyl (2-(pyridin-4-yl)propan-2-yl) carbonate]
half-life at 2 µM [1]: 522 min | CC50 [2]: > 50 µM | EC50 [3]: 14.3 µM | EC50 [4]: 17.7 µM | STA Human Plasma 37 [5]: 1584 | pH 7 Stability 24 h % AN [6]: 94 % AN | Sol pH 7 [7]: 2.03 | pH 2 Stability 24 h % AN [8]: 97 % AN

CC1(C)[C@@H]2CC[C@@]1(C)[C@@H](OC(=O)OC[C@H]1O[C@@](C#N)(c3ccc4c(N)ncnn34)[C@H](O)[C@@H]1O)C2 [Compound 51, ((2R,3S,4R,5R)-5-(4-aminopyrrolo[2,1-f][1,2,4]triazin-7-yl)-5-cyano-3,4-dihydroxytetrahydrofuran-2-yl)methyl ((1R,2S,4R)-1,7,7-trimethylbicyclo[2.2.1]heptan-2-yl) carbonate]
half-life at 2 µM [1]: 11 min | CC50 [2]: 38.3 µM | EC50 [3]: 7.83 µM | EC50 [4]: 0.727 µM | STA Human Plasma 37 [5]: 1366.8 | pH 7 Stability 24 h % AN [6]: 97 % AN | Sol pH 7 [7]: 0.08 | pH 2 Stability 24 h % AN [8]: 98 % AN

CC(C)C(=O)O[C@H]1[C@@H](OC(=O)C(C)C)[C@](C#N)(c2ccc3c(N)ncnn23)O[C@@H]1COC(=O)OC(C)(C)C [Compound 58, (2R,3R,4R,5R)-2-(4-aminopyrrolo[2,1-f][1,2,4]triazin-7-yl)-5-(((tert-butoxycarbonyl)oxy)methyl)-2-cyanotetrahydrofuran-3,4-diyl bis(2-methylpropanoate)]
half-life at 2 µM [1]: 1.19 min | CC50 [2]: 27.1 µM | EC50 [3]: 2.24 µM | EC50 [4]: 1.07 µM | STA Human Plasma 37 [5]: 1584 | pH 7 Stability 24 h % AN [6]: 7 % AN | Sol pH 7 [7]: 0.02 | pH 2 Stability 24 h % AN [8]: 2 % AN

CC(C)OC(=O)OC[C@H]1O[C@@](C#N)(c2ccc3c(N)ncnn23)[C@H](OC(=O)C(C)C)[C@@H]1OC(=O)C(C)C [Compound 59, (2R,3R,4R,5R)-2-(4-aminopyrrolo[2,1-f][1,2,4]triazin-7-yl)-2-cyano-5-(((isopropoxycarbonyl)oxy)methyl)tetrahydrofuran-3,4-diyl bis(2-methylpropanoate)]
half-life at 2 µM [1]: 0.869 min | CC50 [2]: > 50 µM | EC50 [3]: 4.16 µM | EC50 [4]: 0.811 µM | STA Human Plasma 37 [5]: 84.318 | pH 7 Stability 24 h % AN [6]: 93 % AN | Sol pH 7 [7]: 0.01 | Stability at pH2, 0 hr [8]: 100.0 % AN | Stability at pH2, 3 hr [8]: 100.0 % AN | Stability at pH2, 6 hr [8]: 100.0 % AN | Stability at pH2, 9 hr [8]: 100.0 % AN | Stability at pH2, 12 hr [8]: 98.9 % AN | pH 2 Stability 24 h % AN [8]: 98 % AN | Stability at pH2, 24 hr [8]: 97.9 % AN

CC(=O)O[C@H]1[C@@H](OC(C)=O)[C@](C#N)(c2ccc3c(N)ncnn23)O[C@@H]1COC(=O)OC(C)C [Compound 65, (2R,3R,4R,5R)-2-(4-aminopyrrolo[2,1-f][1,2,4]triazin-7-yl)-2-cyano-5-(((isopropoxycarbonyl)oxy)methyl)tetrahydrofuran-3,4-diyl diacetate]
half-life at 2 µM [1]: 0.621 min | CC50 [2]: > 50 µM | EC50 [3]: 3.64 µM | EC50 [4]: 0.185 µM | STA Human Plasma 37 [5]: 14.9 | pH 7 Stability 24 h % AN [6]: 80 % AN | Sol pH 7 [7]: 0.045 | pH 2 Stability 24 h % AN [8]: 90 % AN

COC(=O)OC[C@H]1O[C@@](C#N)(c2ccc3c(N)ncnn23)[C@H](OC(C)=O)[C@@H]1OC(C)=O [Compound 128, (2R,3R,4R,5R)-2-(4-aminopyrrolo[2,1-f][1,2,4]triazin-7-yl)-2-cyano-5-(((methoxycarbonyl)oxy)methyl)tetrahydrofuran-3,4-diyl diacetate]
half-life at 2 µM [1]: 0.59 min | CC50 [2]: > 50 µM | EC50 [3]: 7.23 µM | EC50 [4]: 2.04 µM | STA Human Plasma 37 [5]: 9.735 | pH 7 Stability 24 h % AN [6]: 78 % AN | Sol pH 7 [7]: 1.42 | Stability at pH2, 0 hr [8]: 100.0 % AN | Stability at pH2, 3 hr [8]: 98.3 % AN | Stability at pH2, 6 hr [8]: 96.7 % AN | Stability at pH2, 9 hr [8]: 95.2 % AN | Stability at pH2, 12 hr [8]: 93.8 % AN | pH 2 Stability 24 h % AN [8]: 89 % AN | Stability at pH2, 24 hr [8]: 89.3 % AN

CCOC(=O)OC[C@H]1O[C@@](C#N)(c2ccc3c(N)ncnn23)[C@H](OC(C)=O)[C@@H]1OC(C)=O [Compound 129, (2R,3R,4R,5R)-2-(4-aminopyrrolo[2,1-f][1,2,4]triazin-7-yl)-2-cyano-5-(((ethoxycarbonyl)oxy)methyl)tetrahydrofuran-3,4-diyl diacetate]
half-life at 2 µM [1]: 0.623 min | CC50 [2]: > 50 µM | EC50 [3]: 5.83 µM | EC50 [4]: 0.673 µM | STA Human Plasma 37 [5]: 3 | pH 7 Stability 24 h % AN [6]: 78 % AN | Sol pH 7 [7]: 0.72 | Stability at pH2, 0 hr [8]: 100.0 % AN | Stability at pH2, 3 hr [8]: 98.4 % AN | Stability at pH2, 6 hr [8]: 96.9 % AN | Stability at pH2, 9 hr [8]: 95.5 % AN | Stability at pH2, 12 hr [8]: 94.0 % AN | pH 2 Stability 24 h % AN [8]: 89 % AN | Stability at pH2, 24 hr [8]: 89.4 % AN

Source: patent publication US12448383B2, “Compounds and methods for treatment of viral infections” (priority 2022, dated 2025)
